Drawing on patent publication US11365199B2, “Pyrazole compounds as modulators of FSHR and uses thereof” (Merck Patent GmbH, priority 2013, dated 2022), this text covers EC50 and Emax for 21 compounds.

Where two headings read alike, the source gives them in different places.

The target in test [1] is T1, follicle-stimulating hormone (FSH) receptor (Rattus norvegicus, UniProt P20395).
T1 construct: endogenous in cells; host or cells: primary rat granulosa cells
T1 sequence (P20395 18-692): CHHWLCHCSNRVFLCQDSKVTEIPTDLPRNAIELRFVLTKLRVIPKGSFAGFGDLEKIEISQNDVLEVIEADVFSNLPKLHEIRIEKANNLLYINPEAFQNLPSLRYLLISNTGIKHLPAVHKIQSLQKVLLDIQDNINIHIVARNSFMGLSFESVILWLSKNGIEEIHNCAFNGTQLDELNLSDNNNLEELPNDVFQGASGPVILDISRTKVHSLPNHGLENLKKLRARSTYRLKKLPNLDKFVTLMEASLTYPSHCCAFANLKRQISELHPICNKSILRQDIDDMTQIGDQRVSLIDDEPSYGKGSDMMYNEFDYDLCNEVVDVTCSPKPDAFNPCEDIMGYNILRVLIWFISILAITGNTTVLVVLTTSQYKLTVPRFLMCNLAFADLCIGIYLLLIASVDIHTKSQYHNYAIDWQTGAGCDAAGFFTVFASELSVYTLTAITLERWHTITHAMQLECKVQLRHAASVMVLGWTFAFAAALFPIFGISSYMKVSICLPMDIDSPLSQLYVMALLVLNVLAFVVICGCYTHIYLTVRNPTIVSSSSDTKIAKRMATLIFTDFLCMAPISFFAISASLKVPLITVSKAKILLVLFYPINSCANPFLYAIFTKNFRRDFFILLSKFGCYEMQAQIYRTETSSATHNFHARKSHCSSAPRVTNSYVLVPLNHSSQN
The test can be described thus: Rat granulosa EC50 FSH (Assay B). In kind it is cell-based. The protocol:
Rat Granulosa EC50 FSH (Assay B)
The assay was performed pursuant to the teaching of Yanofsky et al. (2006) Allosteric activation of the follicle-stimulating hormone (FSH) receptor by selective, nonpeptide agonists (JBC 281(19): 13226-13233, which is incorporated by reference in the disclosure of the invention).

Test [2] has as its target T2, FSHR (Homo sapiens, UniProt P23945).
T2 construct: expressed in transfected cells; host or cells: CHO (Cho-FSHR-LUC-1-1-43)
T2 sequence (P23945 18-695): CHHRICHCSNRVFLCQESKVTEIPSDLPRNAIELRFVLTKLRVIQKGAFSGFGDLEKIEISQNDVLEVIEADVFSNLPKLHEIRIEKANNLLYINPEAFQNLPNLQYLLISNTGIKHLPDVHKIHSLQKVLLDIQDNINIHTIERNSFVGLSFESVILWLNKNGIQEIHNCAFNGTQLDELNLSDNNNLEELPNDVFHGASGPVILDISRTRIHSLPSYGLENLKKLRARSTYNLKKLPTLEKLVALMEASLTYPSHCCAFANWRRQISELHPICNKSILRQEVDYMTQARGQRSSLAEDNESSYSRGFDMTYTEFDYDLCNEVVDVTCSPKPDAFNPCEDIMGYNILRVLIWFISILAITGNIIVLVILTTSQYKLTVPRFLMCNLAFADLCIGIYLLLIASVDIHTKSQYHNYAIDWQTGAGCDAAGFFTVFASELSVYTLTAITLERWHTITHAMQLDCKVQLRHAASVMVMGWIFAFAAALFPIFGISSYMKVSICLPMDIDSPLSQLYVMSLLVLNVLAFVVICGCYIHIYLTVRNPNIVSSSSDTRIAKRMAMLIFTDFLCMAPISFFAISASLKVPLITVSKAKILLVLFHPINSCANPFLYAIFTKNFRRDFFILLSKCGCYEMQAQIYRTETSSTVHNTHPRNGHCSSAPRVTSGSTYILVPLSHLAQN
Put plainly: EC50 of cyclic AMP production in CHO FSHR cells + EC20 FSH (Assay A). In kind it is cell-based. The essentials: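 Cho-FSHR-LUC cells were exposed to compound dilution series with EC20 FSH ([…]) and 200 μM IBMX for 1 h at 37° C. cAMP was read by HTRF (665/620 nm ratio). Effects are percent of the maximal FSH standard response.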

Setting [3] is: rat granulosa cells, read-out: Assay B: Rat granulosa EC50 FSH.
Setting [4] is: CHO FSHR cells + EC20 FSH, cAMP HTRF, read-out: Assay A: EC50 of cyclic AMP production.

Regarding `COc1cc2c(cc1-c1ccn(C)c1)-c1c(c(C(=O)N3CCOCC3(C)C)nn1-c1ccsc1)CO2` [Compound 98, (3,3-Dimethyl-morpholin-4-yl)-[7-methoxy-8-(1-methyl-1H-pyrrol-3-yl)-1-thiophen-3-yl-1,4-dihydro-chromeno[4,3-c]pyrazol-3-yl]-methanone], the figures for the EC50 in test [1] (setting [3]) and in test [2] (setting [4]) were 1000 to 5000 nM and less than 100 nM, respectively.

As to `[2H]C([2H])([2H])N(CCN(C(=O)c1nn(-c2ccsc2)c2c1COc1cc(OC)c(CC(C)C)cc1-2)C([2H])([2H])[2H])C(C)=O` [Compound 82], the EC50 (usually the concentration needed to bring the measured effect to its halfway point) in test [1] (setting [3]) is 1000 to 5000 nM; in test [2] (setting [4]), less than 100 nM.

Consider `COc1cc2c(cc1C(O)C(C)C)-c1c(c(C(=O)N3CCOCC3(C)C)nn1-c1ccsc1)CO2` (stereo not drawn) [Compound 131, (3,3-Dimethyl-morpholin-4-yl)-[8-(1-hydroxy-2-methyl-propyl)-7-methoxy-1-thiophen-3-yl-1,4-dihydro-chromeno[4,3-c]pyrazol-3-yl]-methanone], for which the EC50 in test [1] (setting [3]) is 1000 to 5000 nM; in test [2] (setting [4]) it was less than 100 nM.

On to `COc1cc2c(cc1C=C(C)C)-c1c(c(C(=O)N(C)CCN3CCOC3=O)nn1-c1ccsc1)CO2` [Compound 23, 7-Methoxy-8-(2-methyl-propenyl)-1-thiophen-3-yl-1,4-dihydro-chromeno[4,3-c]pyrazole-3-carboxylic Acid methyl-[2-(2-oxo-oxazolidin-3-yl)-ethyl]-amide], for which the EC50 in test [1] (setting [3]) and in test [2] (setting [4]) was less than 100 nM in each case.

In the case of `COc1cc2c(cc1C1=NC([Si](C)(C)C)N=N1)-c1c(c(C(=O)N3CCOCC3(C)C)nn1-c1ccsc1)CO2` (stereo not drawn) [Compound 139, (3,3-Dimethyl-morpholin-4-yl)-[7-methoxy-1-thiophen-3-yl-8-(5-trimethylsilanyl-5H-[1,2,4]triazol-3-yl)-1,4-dihydro-chromeno[4,3-c]pyrazol-3-yl]-methanone], the results for the EC50 in test [1] and in test [2] were 1000 to 5000 nM and less than 100 nM, respectively.

Turning to `COc1cc2c(cc1C1=CCOCC1)-c1c(c(C(=O)N3CCOCC3(C)C)nn1-c1ccsc1)CO2` [Compound 189, [8-(3,6-Dihydro-2H-pyran-4-yl)-7-methoxy-1-thiophen-3-yl-1,4-dihydro-chromeno[4,3-c]pyrazol-3-yl]-(3,3-dimethyl-morpholin-4-yl)-methanone], the EC50 in test [1] (setting [3]) and in test [2] (setting [4]) was less than 100 nM in each case.

On to `COc1cc2c(cc1C1=CCCCO1)-c1c(c(C(=O)N(C)C(C)(C)C)nn1-c1ccsc1)CO2` [Compound 148, 8-(5,6-Dihydro-4H-pyran-2-yl)-7-methoxy-1-thiophen-3-yl-1,4-dihydro-chromeno[4,3-c]pyrazole-3-carboxylic acid tert-butyl-methyl-amide], for which the EC50 is 100 to 1000 nM in test [1] (setting [3]) and less than 100 nM in test [2] (setting [4]).

In the case of `CCn1cc(-c2cc3c(cc2OC)OCc2c(C(=O)N4CCOCC4(C)C)nn(-c4ccsc4)c2-3)cn1` [Compound 210, (3,3-Dimethyl-morpholin-4-yl)-[8-(1-ethyl-1H-pyrazol-4-yl)-7-methoxy-1-thiophen-3-yl-1,4-dihydro-chromeno[4,3-c]pyrazol-3-yl]-methanone], the EC50 in test [1] (setting [3]) is more than 5000 nM; in test [2] (setting [4]) it was less than 100 nM.

For the compound `COCCCn1cc(-c2cc3c(cc2OC)OCc2c(C(=O)N4CCOCC4(C)C)nn(-c4ccsc4)c2-3)cn1` [Compound 208, (3,3-Dimethyl-morpholin-4-yl)-{7-methoxy-8-[1-(3-methoxy-propyl)-1H-pyrazol-4-yl]-1-thiophen-3-yl-1,4-dihydro-chromeno[4,3-c]pyrazol-3-yl}-methanone], the EC50 in test [1] (setting [3]) and in test [2] (setting [4]) was less than 100 nM in each case.

As for `[2H]C([2H])([2H])N(C(=O)c1nn(-c2ccsc2)c2c1COc1cc(OC)c(-c3ccn(C)c3)cc1-2)C1CCOC1` (stereo not drawn) [Compound 146], the EC50 in test [1] (setting [3]) and in test [2] (setting [4]) was 100 to 1000 nM in each case.

Regarding `COC/C=C/c1cc2c(cc1OC)OCc1c(C(=O)N(C)C(C)(C)C)nn(-c3ccsc3)c1-2` [Compound 147, 7-Methoxy-8-((E)-3-methoxy-propenyl)-1-thiophen-3-yl-1,4-dihydro-chromeno[4,3-c]pyrazole-3-carboxylic acid tert-butyl-methyl-amide], the figures for the EC50 in test [1] (setting [3]) and in test [2] (setting [4]) were 100 to 1000 nM and less than 100 nM, respectively.

Regarding `COc1cc2c(cc1C(N)=O)-c1c(c(C(=O)N(C)C(C)(C)C)nn1-c1ccsc1)CO2` [Compound 50, 7-Methoxy-1-thiophen-3-yl-1,4-dihydro-chromeno[4,3-c]pyrazole-3,8-dicarboxylic Acid 8-amide 3-(tert-butyl-methyl-amide)], the results for the EC50 in test [1] (setting [3]) and in test [2] (setting [4]) were 100 to 1000 nM and less than 100 nM, respectively.

Regarding `COc1cc2c(cc1-c1ccn(C)c1)-c1c(c(C(=O)N3CCN(C)CC3(C)C)nn1-c1ccsc1)CO2` [Compound 160, [7-Methoxy-8-(1-methyl-1H-pyrrol-3-yl)-1-thiophen-3-yl-1,4-dihydro-chromeno[4,3-c]pyrazol-3-yl]-(2,2,4-trimethyl-piperazin-1-yl)-methanone], the EC50 in test [1] (setting [3]) and in test [2] (setting [4]) was less than 100 nM throughout.

Consider `COc1cc2c(cc1-c1ccn(C)n1)-c1c(c(C(=O)N3CCOCC3C)nn1-c1ccsc1)CO2` (stereo not drawn) [Compound 218], for which the EC50 in test [1] (setting [3]) is 100 to 1000 nM; in test [2] (setting [4]) it was less than 100 nM.

Regarding `COc1cc2c(cc1CNC(C)=O)-c1c(c(C(=O)N3CCOCC3(C)C)nn1-c1ccsc1)CO2` [Compound 175, N-[3-(3,3-Dimethyl-morpholine-4-carbonyl)-7-methoxy-1-thiophen-3-yl-1,4-dihydro-chromeno[4,3-c]pyrazol-8-ylmethyl]-acetamide], the values for the EC50 in test [1] (setting [3]) and in test [2] (setting [4]) were more than 5000 nM and 100 to 1000 nM, respectively.

On to `[2H]C([2H])([2H])OCC(C)(C)N(C(=O)c1nn(-c2ccsc2)c2c1COc1cc(OC)c(CC(C)C)cc1-2)C([2H])([2H])[2H]` [Compound 83], for which the EC50 in test [1] (setting [3]) was 100 to 1000 nM; in test [2] (setting [4]) it was less than 100 nM.

For `[2H]C([2H])([2H])N(C(=O)c1nn(-c2ccsc2)c2c1COc1cc(OC)c(-c3ccn(C)c3)cc1-2)C1(C)COC1` [Compound 115], the EC50 in test [1] (setting [3]) was 100 to 1000 nM; in test [2] (setting [4]), less than 100 nM.

As for `COc1cc2c(cc1OC(C)C)-c1c(c(C(=O)NCCCNC(=O)C3CCC3)nn1-c1ccsc1)CO2` [Compound 28, 8-Isopropoxy-7-methoxy-1-thiophen-3-yl-1,4-dihydro-chromeno[4,3-c]pyrazole-3-carboxylic Acid [3-(cyclobutanecarbonyl-amino)-propyl]-amide], the EC50 in test [1] (setting [3]) and in test [2] (setting [4]) was more than 5000 nM in each case.

On to `COc1cc2c(cc1-c1cn(C)nc1C)-c1c(c(C(=O)N(C)C(C)(C)C)nn1-c1ccsc1)CO2` [Compound 150, 8-(1,3-Dimethyl-1H-pyrazol-4-yl)-7-methoxy-1-thiophen-3-yl-1,4-dihydro-chromeno[4,3-c]pyrazole-3-carboxylic acid tert-butyl-methyl-amide], for which the results for the EC50 in test [1] (setting [3]) and in test [2] (setting [4]) were 100 to 1000 nM and less than 100 nM, respectively.

Consider `[2H]C([2H])([2H])OCCC1(N(C(=O)c2nn(-c3ccsc3)c3c2COc2cc(OC)c(-c4ccn(C)c4)cc2-3)C([2H])([2H])[2H])COC1` [Compound 198], for which the EC50 in test [1] (setting [3]) and in test [2] (setting [4]) was less than 100 nM in each case.

As to `COc1cc2c(cc1Br)-c1c(c(C(=O)N(C)C(C)(C)C)nn1-c1ccsc1)CO2` [Compound 4, 8-Bromo-7-methoxy-1-thiophen-3-yl-1,4-dihydro-chromeno[4,3-c]pyrazole-3-carboxylic Acid tert-butyl-methyl-amide], in test [1] (read-out: Assay B: percental effect (response) relative to the maximum response of the FSH standard), the Emax at 6 µM stood at 62%. Further, the EC50 in test [2] (setting [4]) was 100 to 1000 nM.
